Measured values taken from patent US8309558B2, “Compounds for the treatment of hepatitis C” (Bristol-Myers Squibb Company, priority 2008, dated 2012).

Tests used:
HCV replicon cells = experiment: HCV replicon FRET / luciferase assay (96-well plates); type: cell-based; conditions: Hepatitis C virus, Table 1a; HCV replicon; read-out: EC50
In short: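 Replicon cells + titrated cpds, 37 °C CO2. Alamar blue for cytotoxicity, PBS rinse, then lysis reagent w/ 20 μM FRET peptide (EDANS/DABCYL), 150 mM NaCl; kinetic read ex340/em490, 20 cycles. Alt: Dual-Glo luciferase. EC50 = 50% drop in FRET/luciferase signal after background subtraction.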

[1] = biological target: T1, HCV NS5B RdRp genotype 1b (Hepatitis C virus genotype 1b, UniProt Q9WMX2); experiment: Standard HCV NS5B RdRp enzyme assay; type: biochemical; conditions: Table 1a; HCV NS5B RdRp genotype 1b; read-out: IC50
T1 construct: The protein was expressed with an 18 amino acid C-terminal truncation to enhance the solubility; made in house; host or cells: E. coli BL21(DE3), pET21a vector
T1 sequence (Q9WMX2 2420-2992): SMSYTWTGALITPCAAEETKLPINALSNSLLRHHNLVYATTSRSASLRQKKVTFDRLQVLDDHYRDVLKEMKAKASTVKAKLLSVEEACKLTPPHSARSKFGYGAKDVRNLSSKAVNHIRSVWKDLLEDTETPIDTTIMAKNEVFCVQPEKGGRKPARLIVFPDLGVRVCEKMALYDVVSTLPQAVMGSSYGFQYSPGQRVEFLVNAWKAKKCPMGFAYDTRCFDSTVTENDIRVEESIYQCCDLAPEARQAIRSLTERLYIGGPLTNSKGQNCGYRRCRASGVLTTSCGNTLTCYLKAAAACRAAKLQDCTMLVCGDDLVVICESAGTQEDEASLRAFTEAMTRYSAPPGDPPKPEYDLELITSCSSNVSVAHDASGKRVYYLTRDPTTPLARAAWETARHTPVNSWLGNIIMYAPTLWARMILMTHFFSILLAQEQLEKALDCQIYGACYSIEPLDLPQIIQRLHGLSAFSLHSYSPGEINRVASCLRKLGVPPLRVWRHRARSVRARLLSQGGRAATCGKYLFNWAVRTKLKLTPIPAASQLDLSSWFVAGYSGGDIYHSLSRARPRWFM
In short: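 C-terminally truncated (18 aa) genotype 1b NS5B from E. coli, 28 nM, with 6 nM polyA template, 180 nM biotinylated oligo-dT12 primer and 3H-UTP (0.29 μM total UTP). Hepes pH 7.5 buffer with 2% DMSO; 60 min at 30° C. EDTA stop, SPA read-out; IC50 from seven concentrations by four-parameter fit.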

With `CCCCCNC(=O)c1cccc(-c2ccc3oc(-c4ccc(F)cc4)c(C(=O)NC)c3c2)c1` as the compound, how does the EC50 (HCV replicon cells) read?
The EC50 was < 0.25 µM.

And the IC50 [1]?
Its IC50 is < 0.25 µM.

How did the EC50 (HCV replicon cells) turn out when `CNC(=O)c1c(-c2ccc(F)cc2)oc2ccc(-c3cccc(C(=O)NCc4ccc(C)cc4)c3)cc12` was run?
Its EC50 is < 0.25 µM.

What about the IC50 [1] of the same compound?
The IC50 was < 0.25 µM.

With `CNC(=O)c1c(-c2ccc(F)cc2)oc2ccc(-c3cccc(C(=O)NCCC(C)C)c3)cc12` as the compound, how does the EC50 (HCV replicon cells) read?
The EC50 was < 0.25 µM.

What about the IC50 [1] of the same compound?
Its IC50 is 0.25 to 1 µM.

What does the source list for `CNC(=O)c1c(-c2ccc(F)cc2)oc2ccc(-c3cccc(C(=O)N[C@@H](CO)C(C)(C)C)c3)cc12`?
EC50 (HCV replicon cells): 1 to 10 µM; IC50 [1]: 1 to 10 µM

How did the EC50 (HCV replicon cells) turn out when `CCCC(CCC)NC(=O)c1cccc(-c2ccc3oc(-c4ccc(F)cc4)c(C(=O)NC)c3c2)c1` was run?
Its EC50 is 1 to 10 µM.

And the IC50 [1]?
The IC50 was > 0.4 µM.

`CNC(=O)c1c(-c2ccc(F)cc2)oc2ccc(-c3cccc(C(=O)NS(=O)(=O)C(C)(C)C)c3)cc12` was tested. Which EC50 (HCV replicon cells) did it give?
Its EC50 is 1 to 10 µM.

What about the IC50 [1] of the same compound?
The IC50 was < 0.25 µM.

Which EC50 (HCV replicon cells) does the source give for `CNC(=O)c1c(-c2ccc(F)cc2)oc2ccc(-c3cccc(C(=O)NS(=O)(=O)c4ccccc4)c3)cc12` here?
The EC50 was 1 to 10 µM.

What about the IC50 [1] of the same compound?
Its IC50 is < 0.25 µM.

Which EC50 (HCV replicon cells) does the source give for `CNC(=O)c1c(-c2ccc(F)cc2)oc2ccc(-c3cccc(C(=O)N(C)S(=O)(=O)c4ccccc4)c3)cc12` here?
Its EC50 is 1 to 10 µM.

What about the IC50 [1] of the same compound?
Its IC50 is > 1.39 µM.

Which EC50 (HCV replicon cells) does the source give for `CNC(=O)c1c(-c2ccc(F)cc2)oc2ccc(-c3cccc(C(=O)NC(C)(C)c4ccccc4)c3)c(NC(C)=O)c12` here?
The EC50 was 1 to 10 µM.

And the IC50 [1]?
Its IC50 is 1 to 10 µM.

`CNC(=O)c1c(-c2ccc(F)cc2)oc2ccc(-c3cccc(S(C)(=O)=O)c3)cc12` was tested. Which EC50 (HCV replicon cells) did it give?
The EC50 was 1 to 10 µM.

And the IC50 [1]?
The IC50 was > 10 µM.

How did the EC50 (HCV replicon cells) turn out when `CNC(=O)c1c(-c2ccc(F)cc2)oc2ccc(-c3cc(C(F)(F)F)ccc3OC)cc12` was run?
Its EC50 is > 3.7 µM.

What about the IC50 [1] of the same compound?
The IC50 was > 10 µM.

`CNC(=O)c1c(-c2ccc(F)cc2)oc2ccc(-c3ccc(C(=O)NC4CC4)cc3)cc12` was tested. Which EC50 (HCV replicon cells) did it give?
The EC50 was > 1.23 µM.

And the IC50 [1]?
The IC50 was > 10 µM.

Which results are given for `CNC(=O)c1c(-c2ccc(F)cc2)oc2ccc(-c3cc(C)c(Br)cc3C)cc12`?
EC50 (HCV replicon cells): > 3.7 µM; IC50 [1]: > 10 µM

`CNC(=O)c1c(-c2ccc(F)cc2)oc2ccc(-c3ccc(C(F)(F)F)c(Cl)c3)cc12` was tested. Which EC50 (HCV replicon cells) did it give?
The EC50 was > 1.23 µM.

What about the IC50 [1] of the same compound?
The IC50 was > 10 µM.

For `CNC(=O)c1c(-c2ccc(F)cc2)oc2ccc(-c3ccc(OC)nc3OC)cc12`, which EC50 (HCV replicon cells) is on record?
The EC50 was > 1.23 µM.

What about the IC50 [1] of the same compound?
The IC50 was > 10 µM.

Which results are given for `CNC(=O)c1c(-c2ccc(F)cc2)oc2ccc(-c3ccc(CNS(C)(=O)=O)cc3)cc12`?
EC50 (HCV replicon cells): > 1.23 µM; IC50 [1]: > 10 µM

Which results are given for `CNC(=O)c1c(-c2ccc(F)cc2)oc2ccc(-c3ccc(OC)nc3)cc12`?
EC50 (HCV replicon cells): > 1.23 µM; IC50 [1]: > 10 µM

Which results are given for `CNC(=O)c1c(-c2ccc(F)cc2)oc2ccc(-c3cc(OC)ncc3Cl)cc12`?
EC50 (HCV replicon cells): > 1.23 µM; IC50 [1]: > 10 µM

`CNC(=O)c1c(-c2ccc(F)cc2)oc2ccc(-c3cccc(C(N)=O)c3)cc12` was tested. Which EC50 (HCV replicon cells) did it give?
The EC50 was > 3.7 µM.

What about the IC50 [1] of the same compound?
Its IC50 is 1 to 10 µM.

For `CNC(=O)c1c(-c2ccc(F)cc2)oc2ccc(-c3cccc(C(=O)OC)c3)cc12`, which EC50 (HCV replicon cells) is on record?
The EC50 was > 3.7 µM.

And the IC50 [1]?
The IC50 was > 10 µM.

`CNC(=O)c1ccc(-c2ccc3oc(-c4ccc(F)cc4)c(C(=O)NC)c3c2)cc1` was tested. Which EC50 (HCV replicon cells) did it give?
Its EC50 is > 3.7 µM.

And the IC50 [1]?
Its IC50 is > 10 µM.

With `CNC(=O)c1c(-c2ccc(F)cc2)oc2ccc(-c3cccc(S(=O)(=O)NC)c3)cc12` as the compound, how does the EC50 (HCV replicon cells) read?
Its EC50 is > 3.7 µM.

And the IC50 [1]?
Its IC50 is > 10 µM.

How did the EC50 (HCV replicon cells) turn out when `CNC(=O)c1c(-c2ccc(F)cc2)oc2ccc(-c3cccc(C(=O)O)c3)cc12` was run?
The EC50 was > 10 µM.

And the IC50 [1]?
Its IC50 is 1 to 10 µM.

`CNC(=O)c1c(-c2ccc(F)cc2)oc2ccc(-c3ccc(CCC(=O)O)cc3)cc12` was tested. Which EC50 (HCV replicon cells) did it give?
The EC50 was > 10 µM.

And the IC50 [1]?
Its IC50 is 1 to 10 µM.

How did the EC50 (HCV replicon cells) turn out when `CNC(=O)Nc1c(-c2ccc(F)cc2)oc2ccc(OC(C)C)cc12` was run?
The EC50 was > 10 µM.

What about the IC50 [1] of the same compound?
The IC50 was > 10 µM.

For `CNC(=O)c1c(-c2ccc(F)cc2)oc2ccc(-c3ccc(Cl)cc3C(=O)O)cc12`, which EC50 (HCV replicon cells) is on record?
The EC50 was > 10 µM.

What about the IC50 [1] of the same compound?
The IC50 was 1 to 10 µM.

What does the source list for `CNC(=O)c1c(-c2ccc(F)cc2)oc2ccc(-c3ccc(C(=O)OC(C)(C)C)cc3)cc12`?
EC50 (HCV replicon cells): > 10 µM; IC50 [1]: > 10 µM

How did the EC50 (HCV replicon cells) turn out when `CNC(=O)c1c(-c2ccc(F)cc2)oc2ccc(-c3ccc(C(=O)O)c(F)c3)cc12` was run?
Its EC50 is > 10 µM.

What about the IC50 [1] of the same compound?
Its IC50 is 1 to 10 µM.

How did the EC50 (HCV replicon cells) turn out when `CNC(=O)c1c(-c2ccc(F)cc2)oc2ccc(-c3ccccc3/C=C/C(=O)O)cc12` was run?
Its EC50 is > 10 µM.

What about the IC50 [1] of the same compound?
The IC50 was 1 to 10 µM.
